Measurements taken from ChEMBL document CHEMBL1201862, “PubChem BioAssay data set” (2004).
Activity calls are given as the source filed them.

Experiments:
[1] = molecular target: Sphingosine 1-phosphate receptor 3 (Homo sapiens, UniProt Q99500); assay: Dose response cell-based high throughput screening assay for antagonists of the Sphingosine 1-Phosphate Receptor 3 (S1P3). [Related pubchem assays: 1429, 485 ]; assay type: functional
[2] = cytotoxicity toward NIH3T3 fibroblasts, dose response, counter-screen, cell-based, ATP luminescence, mouse fibroblasts (AID 2010); assay type: functional;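 also: cells exposed to compound for about 90 hours before reading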
[3] = inhibitors of intracellular T. cruzi replication, confirmation, NIH3T3 host cells, beta-gal luminescence (AID 2044); assay type: functional, cell-based;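 also: intracellular parasites grown in NIH/3T3 mouse fibroblasts as host cells; luminescent beta-galactosidase reporter signal from transgenic T. cruzi replicating inside host cells; inhibitors lower the luminescence signal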
[4] = molecular target: 5-hydroxytryptamine receptor 1E (Homo sapiens, UniProt P28566); assay: Counterscreen assay for S1P3 antagonists: Dose response cell-based high throughput screening assay to identify antagonists of the 5-Hydroxytryptamine Receptor Subtype 1E (5HT1E). [Related pubchem assays: 1429, 485 ]; assay type: functional
Chain of 5-hydroxytryptamine receptor 1E (P28566 whole entry): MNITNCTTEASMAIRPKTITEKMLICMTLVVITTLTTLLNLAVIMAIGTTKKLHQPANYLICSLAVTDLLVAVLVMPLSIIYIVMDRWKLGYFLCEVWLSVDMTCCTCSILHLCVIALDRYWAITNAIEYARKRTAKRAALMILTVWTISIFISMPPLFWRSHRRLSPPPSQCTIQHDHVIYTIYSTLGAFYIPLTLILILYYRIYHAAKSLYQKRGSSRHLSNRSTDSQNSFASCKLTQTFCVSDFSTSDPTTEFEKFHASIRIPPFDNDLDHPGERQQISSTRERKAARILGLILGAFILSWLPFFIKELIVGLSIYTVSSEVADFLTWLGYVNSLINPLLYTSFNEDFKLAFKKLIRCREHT

[5] = molecular target: Potassium voltage-gated channel subfamily KQT member 2 (Rattus norvegicus, UniProt O88943, W236L); assay: KCNQ2 channel potentiators, dose response, mechanism study for KCNQ2 potentiator project, cell-based, automated electrophysiology (AID 2603); assay type: functional
Chain of Potassium voltage-gated channel subfamily KQT member 2 (O88943 whole entry W236L): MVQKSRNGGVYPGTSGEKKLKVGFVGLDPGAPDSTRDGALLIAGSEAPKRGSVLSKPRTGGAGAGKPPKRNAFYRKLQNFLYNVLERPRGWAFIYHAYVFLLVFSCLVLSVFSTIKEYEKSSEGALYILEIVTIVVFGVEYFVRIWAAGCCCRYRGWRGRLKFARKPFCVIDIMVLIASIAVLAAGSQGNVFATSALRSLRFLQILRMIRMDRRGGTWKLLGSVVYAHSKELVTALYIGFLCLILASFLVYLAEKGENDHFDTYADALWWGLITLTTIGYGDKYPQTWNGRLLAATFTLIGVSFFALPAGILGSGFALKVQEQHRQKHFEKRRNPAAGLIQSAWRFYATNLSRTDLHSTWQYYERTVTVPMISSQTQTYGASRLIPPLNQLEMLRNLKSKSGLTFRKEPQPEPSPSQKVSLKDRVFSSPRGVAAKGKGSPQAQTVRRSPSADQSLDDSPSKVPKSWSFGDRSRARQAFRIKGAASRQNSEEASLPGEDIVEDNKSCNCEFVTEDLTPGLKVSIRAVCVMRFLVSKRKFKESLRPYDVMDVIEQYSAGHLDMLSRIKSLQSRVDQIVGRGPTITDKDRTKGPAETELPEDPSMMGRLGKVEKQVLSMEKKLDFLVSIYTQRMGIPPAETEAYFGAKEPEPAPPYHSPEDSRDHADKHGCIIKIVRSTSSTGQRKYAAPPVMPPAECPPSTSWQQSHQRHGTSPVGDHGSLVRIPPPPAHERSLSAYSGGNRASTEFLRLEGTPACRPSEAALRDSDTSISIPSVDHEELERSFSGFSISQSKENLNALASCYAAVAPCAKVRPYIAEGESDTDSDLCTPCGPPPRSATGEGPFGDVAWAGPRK

[6] = A Cell Based Secondary Assay To Explore Cytotoxicity of Compounds that Sensitize Mycobacterium Tuberculosis to Beta-Lactam Antibiotics.; assay type: functional

Chain of Sphingosine 1-phosphate receptor 3 (Q99500 whole entry): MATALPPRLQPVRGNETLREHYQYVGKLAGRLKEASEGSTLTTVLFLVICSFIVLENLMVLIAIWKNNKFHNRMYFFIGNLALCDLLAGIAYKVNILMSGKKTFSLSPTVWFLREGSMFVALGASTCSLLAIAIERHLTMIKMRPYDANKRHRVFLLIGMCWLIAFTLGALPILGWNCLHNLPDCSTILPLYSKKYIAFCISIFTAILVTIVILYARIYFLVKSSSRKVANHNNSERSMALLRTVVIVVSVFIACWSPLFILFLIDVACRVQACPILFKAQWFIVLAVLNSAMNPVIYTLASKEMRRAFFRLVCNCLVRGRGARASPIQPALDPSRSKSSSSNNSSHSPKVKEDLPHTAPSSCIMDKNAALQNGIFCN

With `O=C(Nc1ccc2ccccc2c1)C(c1ccccc1)C1CCCC1` (stereo unspecified) the IC50 [1] was 2.1 µM (active), the EC50 [2] was > 30 µM (not active) and the EC50 [3] was 2.42 µM (active). The IC50 [4] was 1.85 µM (active).

With `CC1=C(C(=O)OC2CCCCCCC2)C(c2cccc(O)c2)NC(=O)N1` (stereo unspecified) the EC50 [5] was 537 µM (active).

In the case of `O=C(COc1ccccc1)Nc1cccc(-c2nnc(-c3ccccc3)o2)c1`, the CC50 [6] was > 40 µM (active).
